Laboratory results from US8906425B2, “Stimulation of the synthesis of the activity of an isoform of lysyl oxidase-like LOXL for stimulating the formation of elastic fibers” (BASF Beauty Care Solutions France S.A.S., priority 2003, dated 2014).
Marks after values point to notes of the source that are not given here.

What was measured:
elastin (Eln) mRNA = assay: Screening of active principles by qualitative RT-PCR, elastin mRNA; assay type: cell-based, human; settings: actives at 1% (v/v), 24 hours, adult abdomen fibroblasts (donor), mRNA vs actin and non-treated control
Procedure: (§1) The active principles were tested at 1% (v/v) on fibroblasts of normal human skin (originating from the foreskin of the infant or originating from the adult). The culture was carried out, e.g. in a monolayer on 24-well culture plates, in a defined medium without serum (Fibroblast Basal Medium). The cells were sown, e.g. at 40,000 per cm^2. At the confluence, the cells are placed in contact with the actives advantageously for 24 hours. In parallel, a non-treated control (medium alone) and three positive controls (TGF-β at 1 ng/ml, IL-1α at 50 pg/ml and Phytokine® (Coletica, Lyons, France) at 2% (v/v)) are advantageously carried out, e.g. on the same culture plate. The TGF-β at 1 ng/ml and the IL-1α at 50 pg/ml were tested beforehand and the stimulation of the synthesis of elastin mRNA induced by these two cytokines at these concentrations was verified by an analysis of the mRNAs, e.g. by quantitative RT-PCR (×10 for TGF-β and ×6 for IL-1 alpha). After the time of placing the actives in contact with the cells, e.g. 24 hours, the media are removed and the cells are preserved e.g. by dry freezing at −80° C. after a rinsing in phosphate buffer pH 7.4. The total RNAs are extracted e.g. with the aid of an extraction kit of 96 wells on silica columns and were determined on a 96-well spectrophotometer at 260 nm (purity indicator: protein determination at 280 nm). […]

LOXL mRNA = assay: Real time RT-PCR effectiveness study, LOXL mRNA; assay type: cell-based, human; settings: 24 hours, adult fibroblasts (donor)
Procedure: (§2) […] The culture was carried out e.g. in monolayer in 24-well plates, in a defined medium without serum. (Fibroblast Basal Medium). The cells are sown e.g. at 40,000 per cm^2. After the time of placing the actives in contact with the cells (24 hours), the media were removed and the cells were preserved e.g. by dry freezing at −80° C. after a rinsing with phosphate buffer at pH 7.4. At the end of experimentation, the content of mRNA of elastin, of LOXL and of actin is evaluated by an mRNA analysis technique, e.g. by real time RT-PCR. For this, the couples of primers enabling the amplification of specific fragments of these genes are those described above (Example 10).
(§3) After extraction e.g. with the aid of an extraction kit in 96-wells on silica columns and determination on a 96-well spectrophotometer at 260 nm, the RNAs are diluted e.g. to 5 ng/μl. The RT-PCR reactions (Reverse Polymerase Transcription Chain Reactions) were carried out by quantitative real time RT-PCR with the aid of the “Opticon” system (MJ Research). Advantageously, the reaction mixture (50 μl) introduced into the wells was the following, for each sample: • 10 μl of RNA at a concentration of 5 ng/μl, • The specific primers of the various labels sought after, • Reaction mixture (Qiagen 25 μl 2xQuantiTect SYBR Green RT-PCR master mix containing 5 mM MgCl2+0.5 μl QuantiTect RT mix), the label SYBR Green I inserting in the DNA double strands during the elongation step. […] Analysis and Method of Calculation: The incorporation of fluorescence in the amplified DNA was evaluated continuously during the PCR cycles. This system enabled obtaining curves of fluorescence measurement as a function of the number of PCR cycles and thus enabled evaluating a relative amount of amplified DNA. […] According to the experimentation, the threshold of measurement of the C (T) (=Cycle Threshold) was fixed for T between 0.05 and 0.01, and then an arbitrary measurement unit is calculated for each gene according to the formula: Sgene ? x ? =10^7×(½)^C(T)gene ? ^x ? […]

LOX mRNA = assay: Real time RT-PCR effectiveness study, LOX mRNA; assay type: cell-based, human; settings: active at 5%, 24 hours, adult fibroblasts (donor)
elastin mRNA [1] = assay: Real time RT-PCR effectiveness study, elastin mRNA; assay type: cell-based, human; settings: 24 hours, adult fibroblasts (donor)
Procedure: as §2, §3

elastin mRNA [2] = assay: Positive controls: stimulation of elastin mRNA synthesis by quantitative RT-PCR; assay type: cell-based; settings: fibroblasts of normal human skin
Procedure: as §1

ethyl hexenoate
Eln Control multiplied by: (elastin (Eln) mRNA): 1.5

CCCC(=O)OC [methyl butyrate]
LOXL Control multiplied by: (LOXL mRNA; active at 0.01%): 0.89
LOXL Control multiplied by: (LOXL mRNA; active at 1%): 2.10*
LOXL Control multiplied by: (LOXL mRNA; active at 5%): 0.91
LOX Control multiplied by: (LOX mRNA): 0.91
El Control multiplied by: (elastin mRNA [1]; active at 0.01%): 0.92
El Control multiplied by: (elastin mRNA [1]; active at 0.1%): 0.96
El Control multiplied by: (elastin mRNA [1]; active at 5%): 1.70*

TGF-β [reference compound]
stimulation of the synthesis of elastin mRNA (×) (elastin mRNA [2]; TGF-β at 1 ng/ml): 10

B1: IL-1 alpha: cytokine used as positive control at 50 pg/ml (protein, UniProt P01583 113-271, looked up)
Interleukin-1 alpha: SAPFSFLSNVKYNFMRIIKYEFILNDALNQSIIRANDQYLTAAALHNLDEAVKFDMGAYKSSKDDAKITVILRISKTQLYVTAQDEDQPVLLKEMPEIPKTITGSETNLLFFWETHGTKNYFTSVAHPNLFIATKQDYWVCLAGGPPSITDFQILENQA
stimulation of the synthesis of elastin mRNA (×) (elastin mRNA [2]; IL-1α at 50 pg/ml): 6
